This note sets out measurements from patent US20150368617A1, “METHOD FOR FORMING ENDOTHELIAL CELLS” (Korea Advanced Institute of Science and Technology (KAIST), priority 2012, published 2015).

Holding throughout (format): cell-based, mouse
Experiment [1] relates to Flk1+ MPCs. Description: EC colony assay. Conditions: 36 hrs; VEGF-A 50 ng/ml, Y27632 10 μM. The procedure: The Flk1+ MPCs were plated onto Matrigel-coated plate at a density of 4,000 cells/cm^2, and cultured in differentiation medium supplemented with VEGF-A165 (50 ng/ml) and Y27632 (10┌M). At 36 hrs later, the number of CD144+ EC colonies was counted. Clustering of >5 CD144+ ECs was regarded as one EC colony.

For experiment [2], the system named is Flk1+ MPCs. The experiment in a line: Immunofluorescence staining of differentiating Flk1+ MPCs (CD144, αSMA, PHH3). The procedure: Cultured cells were fixed with 2% paraformaldehyde (PFA) and blocked with 5% goat (or donkey) serum in PBST (0.3% Triton X-100 in PBS) for 1 hr at room temperature (RT). The cells were incubated overnight at 4┌ C with the following primary antibodies: anti-mouse CD144 (clone 11D4.1, BD Pharmingen™), anti-mouse phospho-histone H3 (rabbit polyclonal, Upstate), anti-mouse cTnT (NeoMarkers), Cy3-conjugated anti-┌ SMA (clone 1A4, Sigma), and anti-mouse CD31 (clone 2H8, Chemicon). After washing in PBST 4 times, the cells were incubated for 2 hrs at RT with the following secondary antibodies: Cy3-conjugated anti-rabbit IgG (Jackson ImmunoResearch), Cy3-conjugated anti-hamster IgG (Jackson ImmunoResearch), Cy3-conjugated anti-mouse IgG antibody (Jackson ImmunoResearch) and FITC or Cy3-conjugated anti-rat (Jackson ImmunoResearch). F-actin and nuclei were stained with TRITC-phalloidin (Invitrogen) and 4′,6-diamidino-2-phenylindole (DAPI, Invitrogen), respectively. The cells were then mounted in fluorescent mounting medium (DAKO Corporation).

Another experiment concerns ICAM2+ ECs. The experiment in a line: Cell cycle FACS analysis in ICAM2+ ECs. To be noted: 12 hrs after plating. As to the method:
FIGS. 15A-15D. ROCK suppression continuously promotes the expansion of ECs. ICAM2+ ECs were further incubated with PBS (Control), Y27632 (10┌ M), VEGF-A (50 ng/ml; VA) or Y27632 (10┌ M) plus VEGF-A (50 ng/ml) for 2 days, and analyses were performed at day 8.5. (FIG. 15A) Representative FACS analysis showing cell cycle in ICAM2+ ECs at 12 hrs. (FIG. 15B) % of ICAM2+ ECs under each phase of cell cycle at 12 hrs. Each group, n=3. *p<0.01 versus Control; ^#p<0.01 versus VEGF-A. (FIG. 15C) Representative FACS analysis of Annexin V+/PI− apoptotic ECs. (FIG. 15D) % of Annexin V+/PI− ECs. Each group, n=3. *p<0.01 versus Control.
Apoptosis assay was performed as previously described. To determine the cell cycle, BrdU/7-AAD cell cycle analysis was performed according to the manufacturer's instructions (BD Pharmingen™). Briefly, cells were incubated with BrdU (1 mM) for 1 hr, dissociated with dissociation buffer, and stained with anti-CD144 antibody. The cells were then fixed, permeabilized, and fixed once more, followed by 1 hr incubation with DNase I (200 U) at 37┌ C. After incubation with FITC-conjugated anti-BrdU antibody for 20 min at RT, the cells were stained with 7-AAD. The cells were analyzed by FACS Aria II and the data were analyzed using FlowJo software.

Another experiment relates to VYI-ECs. The experiment in a line: Scratch wound healing assay. To be noted: addition of Y27632 10 μM to VEGF-A. As to the method:
The purified VYI-ECs were plated on Matrigel-coated plates and incubated in differentiation medium until confluent. A single scratch wound was made on the cell-plated surface with a 200┌ l disposable pipette tip, and the medium was exchanged with a new medium containing either VEGF-A (50 ng/ml), Y27632 (10┌ M), or both. The wound was allowed to heal for 12 hrs. Phase contrast images were taken at 0, 3, 6, and 12 hrs. The average extent of wound closure was evaluated by measuring the wound area using ImageJ software.

As for `C[C@@H](N)[C@H]1CC[C@H](C(=O)Nc2ccncc2)CC1` [Y27632], the “number of EC colonies and cell number in each colony” value in the experiment on Flk1+ MPCs [1] is on record as “increased”. Moreover, in the experiment on Flk1+ MPCs [2] (36 hrs, Y27632 10 μM plus VEGF-A), the “population of PHH3+/CD144+ ECs compared to control” value was 3.7 fold. For the same molecule, in the experiment on Flk1+ MPCs [2] (day 6.5, Y27632 10 μM), the “number of surrounding αSMA+MCs” value is given as “decreased”; the “size and number of CD144+ EC colonies” value is given as “increased”. Also, the “increase of percentage of cells in S phase compared to control” value in the experiment on ICAM2+ ECs was approximately 1.8 fold. Further, the “increase of cell invasion into the wound region” value in the experiment with VYI-ECs is recorded as 2.1 fold.
